These are literature values, as cited in article PMC9516332 (Frontiers in Oncology, 2022).

Data set [1] has as its target panel of 255 wild-type kinases (Homo sapiens, UniProt P00533). To be noted: kinase EGFR; 1 µmol/L single concentration; ref DOI: 10.1371/journal.pone.0092146; cited from earlier work.
Data set [2] has as its target panel of 255 wild-type kinases (Homo sapiens, UniProt P04629). Particulars: kinase TRKA; 1 µmol/L single concentration; ref DOI: 10.1371/journal.pone.0092146; cited from earlier work.
Data set [3] deals with panel of 255 wild-type kinases (Homo sapiens, UniProt P78368). Particulars: kinase CK1γ2; 1 µmol/L single concentration; ref DOI: 10.1371/journal.pone.0092146; cited from earlier work.
The target of data set [4] is panel of 255 wild-type kinases (Homo sapiens, UniProt Q15375). Particulars: kinase EPHA7; 1 µmol/L single concentration; ref DOI: 10.1371/journal.pone.0092146; cited from earlier work.
Data set [5] has as its target panel of 255 wild-type kinases (Homo sapiens, UniProt Q9Y463). Particulars: kinase DYRK1B; 1 µmol/L single concentration; ref DOI: 10.1371/journal.pone.0092146; cited from earlier work.
Data set [6] deals with T1, panel of 255 wild-type kinases (Homo sapiens, UniProt Q13188).
T1 sequence (Q13188 1-491): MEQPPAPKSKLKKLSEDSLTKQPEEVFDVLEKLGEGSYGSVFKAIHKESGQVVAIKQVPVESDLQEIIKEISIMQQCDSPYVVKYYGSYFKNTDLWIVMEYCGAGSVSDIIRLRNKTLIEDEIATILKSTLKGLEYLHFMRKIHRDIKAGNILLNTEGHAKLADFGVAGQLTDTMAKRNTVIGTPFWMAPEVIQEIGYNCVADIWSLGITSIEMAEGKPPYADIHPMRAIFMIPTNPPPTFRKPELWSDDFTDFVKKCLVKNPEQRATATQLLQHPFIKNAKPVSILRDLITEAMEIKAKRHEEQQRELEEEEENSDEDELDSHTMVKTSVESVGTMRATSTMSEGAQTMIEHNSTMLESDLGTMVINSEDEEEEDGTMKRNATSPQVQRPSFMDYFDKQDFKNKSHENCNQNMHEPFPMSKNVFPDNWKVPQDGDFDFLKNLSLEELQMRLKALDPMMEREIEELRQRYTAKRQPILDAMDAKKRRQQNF
Particulars: MST2; 1 µmol/L single concentration; ref DOI: 10.1371/journal.pone.0092146; cited from earlier work.

Data set [7] concerns the target panel of 255 wild-type kinases (Homo sapiens, UniProt Q9H1R3). To be noted: kinase skMLCK; 1 µmol/L single concentration; ref DOI: 10.1371/journal.pone.0092146; cited from earlier work.
For data set [8], the target named is panel of 255 wild-type kinases (Homo sapiens, UniProt Q9H422). Particulars: kinase HIPK3; 1 µmol/L single concentration; ref DOI: 10.1371/journal.pone.0092146; cited from earlier work.
In data set [9] the target is panel of 255 wild-type kinases (Homo sapiens, UniProt P22607). To be noted: kinase FGFR3; 1 µmol/L single concentration; ref DOI: 10.1371/journal.pone.0092146; cited from earlier work.
Data set [10] has as its target panel of 255 wild-type kinases (Homo sapiens, UniProt P11309). To be noted: kinase PIM1; 1 µmol/L single concentration; ref DOI: 10.1371/journal.pone.0092146; cited from earlier work.
The target in data set [11] is panel of 255 wild-type kinases (Homo sapiens, UniProt O94804). To be noted: kinase LOK; 1 µmol/L single concentration; ref DOI: 10.1371/journal.pone.0092146; cited from earlier work.
The target in data set [12] is panel of 255 wild-type kinases (Homo sapiens, UniProt P10721). Particulars: kinase KIT; 1 µmol/L single concentration; ref DOI: 10.1371/journal.pone.0092146; cited from earlier work.
Data set [13] has as its target panel of 255 wild-type kinases (Homo sapiens, UniProt Q13131). Particulars: AMPKα1/β1/γ1 kinase assay; 1 µmol/L single concentration; ref DOI: 10.1371/journal.pone.0092146; cited from earlier work.
Data set [14] addresses T2, panel of 255 wild-type kinases (Homo sapiens, UniProt Q08881).
T2 sequence (Q08881 1-620): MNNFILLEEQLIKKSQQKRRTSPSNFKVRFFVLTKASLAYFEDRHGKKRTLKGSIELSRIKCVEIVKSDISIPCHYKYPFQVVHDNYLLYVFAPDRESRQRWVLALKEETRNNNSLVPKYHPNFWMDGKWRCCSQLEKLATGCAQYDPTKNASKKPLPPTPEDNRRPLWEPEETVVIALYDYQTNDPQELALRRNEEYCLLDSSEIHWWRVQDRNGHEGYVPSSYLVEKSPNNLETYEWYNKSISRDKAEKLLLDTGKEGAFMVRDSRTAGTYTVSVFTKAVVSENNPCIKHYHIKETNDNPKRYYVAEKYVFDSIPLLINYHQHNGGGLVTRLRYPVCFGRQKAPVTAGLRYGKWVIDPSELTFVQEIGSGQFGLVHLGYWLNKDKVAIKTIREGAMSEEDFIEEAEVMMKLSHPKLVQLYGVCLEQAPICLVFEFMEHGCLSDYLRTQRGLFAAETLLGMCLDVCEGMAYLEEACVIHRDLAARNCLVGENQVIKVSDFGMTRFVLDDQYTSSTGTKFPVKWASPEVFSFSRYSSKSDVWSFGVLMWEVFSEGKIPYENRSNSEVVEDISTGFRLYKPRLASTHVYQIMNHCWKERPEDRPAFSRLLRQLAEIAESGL
Particulars: kinase ITK; 1 µmol/L single concentration; ref DOI: 10.1371/journal.pone.0092146; cited from earlier work.

Data set [15] concerns the target panel of 255 wild-type kinases (Homo sapiens, UniProt P23443). Particulars: p70S6K; 1 µmol/L single concentration; ref DOI: 10.1371/journal.pone.0092146; cited from earlier work.

As for `CCCS(=O)(=O)Nc1ccc(F)c(C(=O)c2c[nH]c3ncc(-c4ccc(Cl)cc4)cc23)c1F` [vemurafenib], in data set [1], the “%-inhibition at 1 µmol/L, EGFR” value is 7%. For the same compound, in [2], the “%-inhibition at 1 µmol/L, TRKA” value is on record as 16%. Besides, the “%-inhibition at 1 µmol/L, CK1γ2” value in [3] is on record as 0.506%. Besides, in [4], the “%-inhibition at 1 µmol/L, EPHA7” value was -0.639%. For the same compound, the “%-inhibition at 1 µmol/L, DYRK1B” value in data set [5] was -1.74%. The “%-inhibition, MST2” value in data set [6] is recorded as 24%. In addition, in data set [7], the “%-inhibition at 1 µmol/L, skMLCK” value was 53%. In addition, the “%-inhibition at 1 µmol/L, HIPK3” value in data set [8] was -6%. In addition, in data set [9], the “%-inhibition at 1 µmol/L, FGFR3” value is reported as 15%. The “%-inhibition at 1 µmol/L, PIM1” value in data set [10] is given as -3.41%. In data set [11], the “%-inhibition at 1 µmol/L, LOK” value is on record as -1%. The “%-inhibition at 1 µmol/L, KIT” value in [12] is reported as 58%. For the same compound, in [13], the “%-inhibition AMPKα1/β1/γ1” value was -1.59%. Besides, the “%-inhibition at 1 µmol/L, ITK” value in data set [14] is listed as 3%. For the same compound, in data set [15], the “%-inhibition, p70S6K” value is reported as 9%.
